# Measured values taken from patent publication US11466024B2, “Bicylic compound acting as an inhibitor” (CHIA TAI TIANQING PHARMACEUTICAL GROUP CO., LTD., priority 2017, dated 2022).
# Assays:
# RORγ = target: T1, RORγ (Homo sapiens, UniProt P51449); assay: In vitro test for inhibitory activity on RORγ: luciferase reporter cells expressing chimeric Gal4-RORγ receptor; format: cell-based; conditions: Gal4 hybrid receptor luciferase reporter, HEK293, 24 hours incubation
# T1 sequence (P51449 97-518): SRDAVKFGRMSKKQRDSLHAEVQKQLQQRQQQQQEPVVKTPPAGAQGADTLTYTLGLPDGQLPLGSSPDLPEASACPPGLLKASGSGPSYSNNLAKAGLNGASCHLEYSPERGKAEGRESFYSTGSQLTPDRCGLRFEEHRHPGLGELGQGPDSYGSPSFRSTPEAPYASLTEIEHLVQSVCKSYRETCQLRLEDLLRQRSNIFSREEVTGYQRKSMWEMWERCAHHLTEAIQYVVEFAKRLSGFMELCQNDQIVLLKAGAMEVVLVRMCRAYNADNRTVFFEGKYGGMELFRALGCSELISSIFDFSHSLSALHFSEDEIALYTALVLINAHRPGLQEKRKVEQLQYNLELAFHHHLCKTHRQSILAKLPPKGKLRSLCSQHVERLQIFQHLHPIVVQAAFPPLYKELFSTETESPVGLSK
# Experimental: Reporter cells: Reporter cells expressing a chimeric RORγ receptor were used in this experiment. The chimeric RORγ receptor was a RORγ receptor formed by replacing the N-terminal DNA-binding domain of the natural RORγ protein with the DNA-binding domain of the yeast Gal4 protein. The luciferase reporter gene was located at the downstream of the Gal4 activating sequence (UAS).
# Step 1: Reporter cells were prepared into a cell suspension using INDIGO's Cell Recovery Medium (CRM, containing 5% fetal bovine serum treated by activated carbon). The cell suspension was dispensed into a white 96-well culture plate in a volume of 100 μl/well.
# Step 2: Eight concentration gradients were set for each test compound, and the test was conducted twice at each concentration. Prior to the experiment, the main stock solution of the test compound was serially diluted with DMSO, so as to formulate solutions with “1000×-concentration” relative to each of the final test concentrations. Subsequently, the compound was further diluted with the cell recovery medium (CRM, containing 5% fetal bovine serum treated by activated carbon), so as to formulate test working solutions with “2×-concentration”. As per a volume of 100 μl/well, the test working solutions were respectively added to the test wells in which the reporter cells were added in advance, so as to obtain the desired final test concentrations. The residual concentrations of DMSO in all test wells were 0.1%. The test plate was incubated in a cell incubator for 24 hours. Conditions of the incubator were set as follows: temperature: 37° C., 5% CO2, humidity: ˜85%.
# Step 3: After 24 hours of incubation, the liquid in the culture plate was discarded, 100 μl of luciferase detection reagent was added to each test well, and then, the fluorescence intensity (Relative Luminescence Units, RLUs) in each well was read.
# In this test, the reference compound ursolic acid was used as an internal standard of a positive compound to verify the inhibitory effect of the test compound on RORγ in reporter cells of a specific batch. The tests for the reference compound and the test compound were performed simultaneously, and the reference compound and the test compound were thus exposed to the same test reagent and environment. The reference compound group containing 0.1% DMSO as solvent was used as an internal standard of a positive compound, so as to determine the effect of the solvent DMSO on the test results and calculate the percentage reduction in RORγ activity.
# The test data was managed and archived by Microsoft Excel, and mean±standard deviation (SD) of RLU, fold of reduction, inhibition rate, coefficient of variation (% CV) and Z factor were calculated. Coefficient of variation (% CV): 100×(SD/Ave. RLU); Fold of reduction for inverse agonist: [Ave. […]
# [1] = system: imiquimod-induced psoriasis; assay: In vivo pharmacodynamic study in imiquimod (IMQ)-induced psoriasis model in mice; parameters: species or system C57BL/6 mice; conditions: for Clinical scores (Mean ± SEM, n = 8): 75 mg/kg
# Experimental: 6- to 8-week old female C57BL/6 mice were selected, depilated on the backs, and sensitized two days later except for the sham operation group. On the day of sensitization, the mice were randomly divided into the following 6 groups (8 mice per group). Group I was a sham operation group; Group II was a vehicle control group and PBS was administered; Group III was a positive control group and 5 mg/kg methotrexate was administered; Groups IV, V and VI were ip treatment group, ig treatment group, and topical treatment group of the compound of Example 1, and 75 mg/kg of the compound of Example 1 was administered via intraperitoneal injection, intragastric administration, and dorsal application, respectively. Administration was started on the day of sensitization, once daily for Group III and twice daily for Groups IV to VI. On the day of sensitization, the mice in Groups II to VI were given 60 to 80 mg of imiquimod cream (5%) on the dorsal skin for 4 consecutive days. (Please refer to Bouchaud, G., et al., Epidermal IL-15Ralpha acts as an endogenous antagonist of psoriasiform inflammation in mouse and man. J. Exp. Med., 2013. 210(10): p. 2105-17.)
# The mice were weighed daily from the day of sensitization, and the skin scales, induration, and erythema were observed and scored according to a four-grade scoring method: 0 point, no disease; 1 point, mild; 2 points, moderate; 3 points, severe; and 4 points, very severe. (Please refer to Qin, S., et al., Endogenous n-3 polyunsaturated fatty acids protect against imiquimod-induced psoriasis-like inflammation via the IL-17/IL-23 axis. Mol Med Rep, 2014. 9(6): p. 2097-104.)
structure (smiles),measurement,setting,value
"CCS(=O)(=O)c1ccc(CNC(=O)c2cc3c(s2)C(C(C)C)N(C[C@H]2CC[C@H](C(F)(F)F)CC2)C3)nc1 (single isomer, unassigned) [Example 1]",EC50,RORγ; Specific value of the concentration required for 50% inhibition (EC50) of RORγ,15.8 nM
same,EC50,RORγ; Value of the concentration required for 50% Inhibition (EC50) of RORγ,< 100 nM
same,effect on reducing the clinical scores compared with 5 mg/kg of methotrexate,"[1]; 75 mg/kg by intraperitoneal injection, intragastric administration and dorsal application, FIG. 5",equivalent
same,"effect on the clinical scores (skin scales, induration)","[1]; 75 mg/kg by intraperitoneal injection, intragastric administration and dorsal application, p<0.01, FIG. 5",reduce the clinical scores significantly
same,"Clinical scores (Mean ± SEM, n = 8)","[1]; ig, Day 1",0 ± 0
same,"Clinical scores (Mean ± SEM, n = 8)","[1]; ig, Day 2",0.31 ± 0.13
same,"Clinical scores (Mean ± SEM, n = 8)","[1]; ig, Day 3",0.50 ± 0.19
same,"Clinical scores (Mean ± SEM, n = 8)","[1]; ig, Day 4",1.29 ± 0.21
same,"Clinical scores (Mean ± SEM, n = 8)","[1]; ig, Day 5",1.64 ± 0.18
same,"Clinical scores (Mean ± SEM, n = 8)","[1]; ip, Day 1",0 ± 0
same,"Clinical scores (Mean ± SEM, n = 8)","[1]; ip, Day 2",0.25 ± 0.13
same,"Clinical scores (Mean ± SEM, n = 8)","[1]; ip, Day 3",0.50 ± 0.16
same,"Clinical scores (Mean ± SEM, n = 8)","[1]; ip, Day 4",1.25 ± 0.19
same,"Clinical scores (Mean ± SEM, n = 8)","[1]; ip, Day 5",1.81 ± 0.25
same,"Clinical scores (Mean ± SEM, n = 8)","[1]; topical, Day 1",0 ± 0
same,"Clinical scores (Mean ± SEM, n = 8)","[1]; topical, Day 2",0.25 ± 0.13
same,"Clinical scores (Mean ± SEM, n = 8)","[1]; topical, Day 3",0.44 ± 0.15
same,"Clinical scores (Mean ± SEM, n = 8)","[1]; topical, Day 4",0.94 ± 0.24
same,"Clinical scores (Mean ± SEM, n = 8)","[1]; topical, Day 5",1.43 ± 0.20
